# Results reported in patent US11136409B2, “Compositions and methods for identification, assessment, prevention, and treatment of AML using USP10 biomarkers and modulators” (Dana-Farber Cancer Institute, Inc., priority 2016, dated 2021).
# Entries after “also recorded” stand apart in the source; their conditions may differ. Read-outs that look alike come from different tables or passages of the source.
# Tests used:
# USP10 [1] = assay: USP10 target engagement in cells, labeling with HA-Ub-VS; assay type: cell-based; conditions: lysates from live treated cells
# Method: Cells were harvested, washed with PBS, and lysed in 1% NP-40, 10% glycerol, 2% sodium orthovanadate, and HALT protease inhibitor cocktail (ThermoFisher). Lysate was diluted to 50 ug in 30 uL lysis buffer with 1% DTT and incubated on ice for 15 minutes. 0.25 ug HA-Ub-VS was added, and the sample was gently rocked at room temperature for 30 minutes, then denatured with LDS sample buffer.
# PBMCs = assay: Treatment of PBMCs from healthy donors with USP10-targeting inhibitors; assay type: cell-based, human; conditions: Homo sapiens
# From the text: (§1) Nomo-1, P31-FUJ, and NB4 were obtained from Dr. Gary Gilliland. MV4, 11 cells were obtained from Dr. Anthony Letai. Hel, K562, THP, U937, TF-1 and K052 cells were purchased from the American Type Culture Collection (ATCC) (Manassas, Va., USA). […] Cell lines were submitted for cell line authentication and were authenticated within 6 months of manuscript preparation through cell line short tandem repeat (STR) profiling (DDC Medical, Fairfield, Ohio and Molecular Diagnostics Laboratory, Dana Farber Cancer Institute). […] PBMCs were generously provided by Dr. Steven Treon and Dr. Guang Yang.
# (§2) The CellTiter-Glo® assay (Promega, Madison, Wis.) was used for proliferation studies and carried out according to manufacturer instructions. Cell viability is reported as percentage of control (untreated) cells, and error bars represent the standard error of the mean for each data point.
# [2] = test system: AML primagraft (D835Y+, FLT3-ITD+) cells; assay: Treatment of mutant FLT3-expressing AML primagraft cells ex vivo; assay type: cell-based, human; conditions: Homo sapiens, read-out: IC50 (+/−S.D.) AML primagraft (D835Y+, FLT3-ITD+)
# Method: All animal studies were performed according to protocols approved by the Dana-Farber Cancer Institute's Institutional Animal Care and Use Committee. […] Mice were sacrificed on day 21 of treatment. Bone marrow was flushed from mouse femurs, and spleens and livers were dissected and preserved first in formalin, followed 24 hours later by preservation in 70% ethanol. […] All AML primagraft samples used in the studies described herein were obtained through the Public Repository of Xenografts (proxe.org).
# as §2
# MOLM14 cells = assay: Immunoblot of FLT3, Beclin-1, AKT, ERK1/ERK2 in MOLM14 cells; assay type: cell-based, human; conditions: approximately 23 hours of treatment
# From the text: (§3) The following antibodies were purchased from Cell Signaling Technology (Danvers, Mass.): total AKT (rabbit, #9272) and total p44/42 MAPK (Erk1/2) (3A7) (mouse, #9107) were used at 1:1000 dilution. Anti-GAPDH (D16H-11) XP (R) (rabbit mAb, #5174) was used at 1:1000 dilution. Beclin-1 (rabbit, #3738) was used at 1:1000. USP10 (D7A5) (rabbit, #8501) was used at 1:1000 dilution. P53 (rabbit, #9282) was used at 1:1000 dilution. β-tubulin (rabbit, #2146s) was used 1:1000.
# (§4) FLT3/Flk-2 (C-20) (sc-479) and Ub (P4D1) (mouse, sc-8017) were purchased from Santa Cruz Biotechnology, Inc. (Dallas, Tex.) and used at 1:1000 dilution for immunoblotting. Anti-pTyr (mouse, clone 4G10) was purchased from Upstate Biotechnology (Lake Placid, N.Y.) and was used at 1:1000 dilution. Anti-HAUSP/USP7 antibody (rabbit, ab4080) and anti-ubiquitin antibody (rabbit, ab7780) were purchased from Abcam (Cambridge, Mass.) and used at 1:1000 dilution.
# (§5) Protein lysate preparation, immunoblotting, and immunoprecipitation were carried out as previously described in Weisberg et al. (2002) Cancer Cell 1:433-443.
# [3] = molecular target: T1, human USP10 (residues 376-798) (Homo sapiens, UniProt Q14694); assay: In vitro USP10 activity assay (Ubiquitin-AMC); assay type: biochemical; conditions: ubiquitin-AMC as substrate; purified enzyme; read-out: USP10 biochemical IC50
# T1 construct: A construct of human USP10 covering residues 376-798 in the pET28a vector; His-tag (cleaved yes); made in house; host or cells: E. coli BL21 (DE3)
# Method: Protein expression and purification. A construct of human USP10 covering residues 376-798 in the pET28a vector was over-expressed in E. coli BL21 (DE3) in TB medium in the presence of […] of kanamycin. Cells were grown at 37° C. to an OD of 0.8, cooled to 17° C., induced with 500 μM isopropyl-1-thio-D-galactopyranoside, incubated overnight at 17° C., collected by centrifugation, and stored at −80° C. Cell pellets were sonicated in buffer A (50 mM HEPES (pH 7.5), 300 mM NaCl, 10% glycerol, 10 mM Imidazole, and 3 mM BME) and the resulting lysate was centrifuged at 30,000×g for 30 min. Ni-NTA beads (Qiagen) were mixed with lysate supernatant for 30 min and washed with buffer A. Beads were transferred to an FPLC-compatible column and the bound protein was washed with 15% buffer B (50 mM HEPES (pH 7.5), 300 mM NaCl, 10% glycerol, 300 mM Imidazole, and 3 mM BME) and eluted with 100% buffer B. Thrombin was added to the eluted protein and incubated at 4° C. overnight. The sample was then passed through a HiPrep 26/10 desalting column (GE Healthcare) pre-equilibrated with buffer A without imidazole, and the eluted protein was subjected to a second Ni-NTA step to remove His-tag and Thrombin. The eluent was concentrated and passed through a Superdex® 200 10/300GL column (GE Healthcare) in a buffer containing 20 mM HEPES (pH 7.5), 150 mM NaCl, and 1 mM DTT. Fractions were pooled, concentrated to 20 mg/ml, and frozen at −80° C.
# In vitro USP10 activity assay. Recombinant USP10, residues 376-798, was tested for its activity in a Ubiquitin-AMC assay in presence or absence of inhibitors. For this assay, 10 nM USP10 were pre-incubated with different concentrations of inhibitors or DMSO as a control in 50 mM HEPES pH7.6, 0.5 mM EDTA, 11 uM ovalbumin, and 5 mM DTT. The reaction was incubated for 6 hours at room temperature prior to the addition of 2 uM Ubiquitin-AMC (Boston Biochem) substrate. The initial rate of the reaction was measured by collecting fluorescence data at one minute intervals over 30-minute period using a CLARIOstar® fluorescence plate reader at excitation and emission wavelength of 345 and 445 nm, respectively. The calculated initial rate values were plotted against inhibitor concentrations to determine IC50 values.
# [4] = test system: primary tumor cells from FLT3-ITD positive AML patients and FLT3 mutant primagrafts; assay: Survival of primary AML patient cells and FLT3 mutant primagrafts; assay type: cell-based, human; conditions: approximately 72 hrs of treatment
# From the text: as §2, with “The trypan blue exclusion assay has been previously described in Weisberg et al. (2002) Cancer Cell 1:433-443 and was used for quantification of cells prior to seeding for CellTiter-Glo® assays. The” for “The”
# Mononuclear cells were isolated from samples from AML patients identified as harboring mutant FLT3. Cells were tested in liquid culture (DMEM supplemented with 20% FBS) in the presence of different concentrations of single and combined agents. All blood and bone marrow samples from AML patients were obtained under approval of the Dana Farber Cancer Institute Institutional Review Board.
# Ba/F3-FLT3-ITD cells [5] = assay: Proliferation of Ba/F3-FLT3-ITD cells; assay type: cell-based, murine; conditions: concentration up to 20 μM; approximately 72 hours
# From the text: as §1, §2
# Ba/F3-FLT3-ITD cells [6] = assay: Immunoblot of FLT3 / Beclin-1 in Ba/F3-FLT3-ITD cells; assay type: cell-based, murine; conditions: concentration up to 20 μM
# From the text: as §3, §4, §5
# [7] = test system: FLT3-ITD+, D835Y+ AML primagraft; assay: Primagraft study in NSG mice; assay type: in vivo; conditions: 15 mg/kg
# Method: All animal studies were performed according to protocols approved by the Dana-Farber Cancer Institute's Institutional Animal Care and Use Committee. […]. Mice were sacrificed on day 21 of treatment. Bone marrow was flushed from mouse femurs, and spleens and livers were dissected and preserved first in formalin, followed 24 hours later by preservation in 70% ethanol. […]; All AML primagraft samples used in the studies described herein were obtained through the Public Repository of Xenografts (proxe.org).
# [8] = test system: Ba/F3-FLT3-ITD-luc+ cells; assay: Non-invasive in vivo bioluminescence study
# USP10 [9] = molecular target: USP10 (Homo sapiens, UniProt Q14694); assay: MALDI TOF DUB assay with diubiquitin substrate; assay type: biochemical; conditions: diubiquitin (K11) as substrate
# Method: Thirty-one human DUBs were freshly diluted in the reaction buffer (40 mM Tris-HCl, pH 7.6, 5 mM DTT, 0.005% BSA) at different concentrations (see Table 10). […] The enzymes were pre-incubated with the compounds for 30 min at room temperature at 10 μM final concentration. 0.48 μl of di-ubiquitin topoisomers were added to the reaction mixture to initiate the reaction. The reaction was sealed and incubated for 30 min at room temperature and stopped by adding TFA to a final concentration of 2% (v/v).
# Mass spectrometry data was acquired on an UltrafleXtreme MALDI-TOF mass spectrometer (Bruker Daltonics) with Compass 1.3 control and processing software. The sample carrier was taught before each analysis to optimize and centre laser shooting. […] Samples were analysed in automatic mode (AutoXecute, Bruker Daltonics). […] An amount of 3,500 shots were summed up in “random walk” and with “large” smartbeam laser focus. Spectra were automatically calibrated on the ^15N-Ub m/z and processed using smoothing (Savitzky-Golay algorithm) and baseline subtraction (‘TopHat’) for reproducible peak annotation on non-resolved isotope distributions: one cycle, 0.2 m/z for the width. For area calculation, the complete isotopic distribution was taken into account. […]
# [10] = 24 hr assay, PBMC#1, read-out: IC50 (+/−S.D.) PBMC#1
# [11] = 24 hr assay, PBMC#2, read-out: IC50 (+/−S.D.) PBMC#2
# T1 sequence (Q14694 376-798): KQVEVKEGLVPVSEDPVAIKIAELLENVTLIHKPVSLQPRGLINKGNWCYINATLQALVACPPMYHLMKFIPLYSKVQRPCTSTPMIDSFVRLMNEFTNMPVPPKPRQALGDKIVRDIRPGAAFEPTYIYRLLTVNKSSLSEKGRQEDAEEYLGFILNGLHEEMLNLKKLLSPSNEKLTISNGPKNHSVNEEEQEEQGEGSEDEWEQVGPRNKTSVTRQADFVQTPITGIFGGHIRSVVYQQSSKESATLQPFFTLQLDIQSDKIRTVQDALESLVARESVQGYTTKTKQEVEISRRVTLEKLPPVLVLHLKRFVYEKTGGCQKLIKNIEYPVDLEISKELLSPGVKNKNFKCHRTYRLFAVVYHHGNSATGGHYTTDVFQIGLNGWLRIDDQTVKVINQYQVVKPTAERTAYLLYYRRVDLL
# Chain of USP10 (Homo sapiens, UniProt Q14694) (Q14694 whole entry): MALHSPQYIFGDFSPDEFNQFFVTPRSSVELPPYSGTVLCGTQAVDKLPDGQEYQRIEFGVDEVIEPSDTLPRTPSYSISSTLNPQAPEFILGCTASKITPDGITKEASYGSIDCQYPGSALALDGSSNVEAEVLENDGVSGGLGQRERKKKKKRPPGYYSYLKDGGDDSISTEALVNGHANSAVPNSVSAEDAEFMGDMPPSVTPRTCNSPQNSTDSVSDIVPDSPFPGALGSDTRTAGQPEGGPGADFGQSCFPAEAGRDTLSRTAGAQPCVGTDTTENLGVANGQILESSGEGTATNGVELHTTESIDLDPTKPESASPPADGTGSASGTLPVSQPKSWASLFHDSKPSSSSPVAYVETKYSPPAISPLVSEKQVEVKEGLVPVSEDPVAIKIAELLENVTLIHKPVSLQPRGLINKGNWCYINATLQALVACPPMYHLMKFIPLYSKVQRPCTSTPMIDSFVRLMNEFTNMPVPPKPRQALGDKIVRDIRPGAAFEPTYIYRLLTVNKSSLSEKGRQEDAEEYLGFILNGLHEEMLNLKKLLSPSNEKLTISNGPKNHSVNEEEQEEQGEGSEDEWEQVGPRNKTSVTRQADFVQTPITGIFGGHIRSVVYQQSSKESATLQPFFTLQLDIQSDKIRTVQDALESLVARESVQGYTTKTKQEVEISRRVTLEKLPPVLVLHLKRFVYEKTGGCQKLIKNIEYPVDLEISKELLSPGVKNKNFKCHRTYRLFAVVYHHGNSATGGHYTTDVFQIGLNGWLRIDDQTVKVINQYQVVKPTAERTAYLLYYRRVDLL
Compound,Inhibitor concentration blocking USP10 labeling by HA-Ub-VS (USP10 [1]),IC50 (PBMCs; [10]) [µM],IC50 (PBMCs; [11]) [µM],IC50 ([2]; 24 hr assay) [µM],Expression of AKT and ERK1/ERK2 downstream of FLT3 (MOLM14 cells),IC50 [3] [µM],Survival of patient samples and primagrafts [4],Cell viability (Ba/F3-FLT3-ITD cells [5]),FLT3 levels (Ba/F3-FLT3-ITD cells [6]),Tolerability ([7]; 21-day treatment period),"Average weight loss ([7]; 21 days, same for vehicle-treated, none below 15% weight loss) [g]","Reduction in luciferase-positive signal in bone marrow versus vehicle ([8]; 50 mg/kg IP BID, 4 days)","Lower percentage of FLT3 expression in bone marrow versus vehicle ([8]; 50 mg/kg IP BID, 4 days, flow cytometry)",Vital organ toxicity ([8]; mouse studies),Body weight versus vehicle ([8]; treated for up to 11 days),"IC50 (PBMCs; 72 hr assay, PBMC#1, read-out: IC50 (+/−S.D.) PBMC#1) [µM]","IC50 (PBMCs; 72 hr assay, PBMC#2, read-out: IC50 (+/−S.D.) PBMC#2) [µM]",IC50 ([2]; 24 h) [µM],IC50 ([2]; 72 h) [µM],IC50 (USP10 [9]) [µM]
"CS(=O)(=O)c1ccc(NC(=O)c2cc(C#N)c(Sc3c(Cl)cncc3Cl)s2)cc1 [1247825-37-1, reference compound]",low micromolar range,14.9,16.6,2.5,unchanged,36,–,–,–,–,–,–,–,–,–,–,–,–,–,–
O=C(CCc1ccccc1)N1CCC(O)(Cn2cnc3cc(Cl)ccc3c2=O)CC1 [Compound 2],–,–,–,–,–,–,little to no effect,little impact on cell viability,did not lead to reduced FLT3 levels,–,–,–,–,–,–,–,–,–,–,–
CC(=O)c1cc([N+](=O)[O-])c(Sc2ccc(F)cc2F)s1 [P22077],–,10.6,7.8,–,–,15,–,–,–,generally well-tolerated; also recorded: generally well tolerated,2 to 3,approximately 2 fold,approximately 2 fold,no evidence of vital organ toxicity,no significant difference in weight,6.9,4.4,6.9,2.6,6
